According to PMC5596636 (ACS chemical neuroscience, 2016):
“Also recorded” adds a separate entry of the source.

How the values were obtained:
[1] = tested on: hMC4R; settings: cited from earlier work
[2] = tested on: hMC4R; settings: cited from earlier work; remark: listed apart in the source
[3] = tested on: hMC1R; settings: COS cell-line expressing human melanocortin receptors; cited from earlier work
[4] = tested on: hMC3R; settings: COS cell-line expressing human melanocortin receptors; cited from earlier work
[5] = target: T1, mMC1R (Mus musculus, UniProt Q01727); assay: cAMP-based β-galactosidase reporter agonist assay in HEK293 cells, mMC1R; settings: EC50 of substituted peptide divided by EC50 of NDP-MSH; potency loss
T1 sequence (Q01727 whole entry): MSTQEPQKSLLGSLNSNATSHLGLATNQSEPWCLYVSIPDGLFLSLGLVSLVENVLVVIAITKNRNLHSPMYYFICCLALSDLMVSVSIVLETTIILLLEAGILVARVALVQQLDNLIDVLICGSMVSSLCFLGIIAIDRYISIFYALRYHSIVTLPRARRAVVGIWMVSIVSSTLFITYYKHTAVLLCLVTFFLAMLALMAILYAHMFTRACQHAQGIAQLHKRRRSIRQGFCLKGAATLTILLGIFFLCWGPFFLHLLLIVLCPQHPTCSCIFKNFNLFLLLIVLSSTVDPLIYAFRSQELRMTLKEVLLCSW

[6] = target: T2, mMC3R (Mus musculus, UniProt P33033); assay: cAMP-based β-galactosidase reporter agonist assay in HEK293 cells, mMC3R; settings: for mMC3R fold difference: EC50 of substituted peptide divided by EC50 of NDP-MSH, potency loss
T2 sequence (P33033 whole entry): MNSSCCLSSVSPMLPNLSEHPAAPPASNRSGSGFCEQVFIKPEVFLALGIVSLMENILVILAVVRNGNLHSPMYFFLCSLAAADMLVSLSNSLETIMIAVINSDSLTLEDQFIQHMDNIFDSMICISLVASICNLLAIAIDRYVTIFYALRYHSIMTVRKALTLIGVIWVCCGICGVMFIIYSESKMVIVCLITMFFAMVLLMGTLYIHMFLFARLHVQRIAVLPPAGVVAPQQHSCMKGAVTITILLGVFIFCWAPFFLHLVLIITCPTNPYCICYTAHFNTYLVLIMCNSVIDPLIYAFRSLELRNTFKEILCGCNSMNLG

[7] = target: T3, mMC4R (Mus musculus, UniProt P56450); assay: cAMP-based β-galactosidase reporter agonist assay in HEK293 cells, mMC4R; settings: EC50 of substituted peptide divided by EC50 of NDP-MSH; potency loss
T3 sequence (P56450 whole entry): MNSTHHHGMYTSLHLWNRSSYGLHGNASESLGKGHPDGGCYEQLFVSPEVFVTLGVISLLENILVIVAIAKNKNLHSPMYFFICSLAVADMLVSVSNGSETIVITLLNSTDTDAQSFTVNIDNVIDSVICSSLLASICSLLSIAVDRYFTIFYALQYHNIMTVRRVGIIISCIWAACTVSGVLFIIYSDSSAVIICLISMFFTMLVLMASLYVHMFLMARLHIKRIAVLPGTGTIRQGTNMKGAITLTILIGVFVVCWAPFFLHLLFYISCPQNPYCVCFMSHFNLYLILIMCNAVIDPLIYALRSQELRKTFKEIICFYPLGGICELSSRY

[8] = target: T4, mMC5R (Mus musculus, UniProt P41149); assay: cAMP-based β-galactosidase reporter agonist assay in HEK293 cells, mMC5R; settings: EC50 of substituted peptide divided by EC50 of NDP-MSH; potency loss
T4 sequence (P41149 whole entry): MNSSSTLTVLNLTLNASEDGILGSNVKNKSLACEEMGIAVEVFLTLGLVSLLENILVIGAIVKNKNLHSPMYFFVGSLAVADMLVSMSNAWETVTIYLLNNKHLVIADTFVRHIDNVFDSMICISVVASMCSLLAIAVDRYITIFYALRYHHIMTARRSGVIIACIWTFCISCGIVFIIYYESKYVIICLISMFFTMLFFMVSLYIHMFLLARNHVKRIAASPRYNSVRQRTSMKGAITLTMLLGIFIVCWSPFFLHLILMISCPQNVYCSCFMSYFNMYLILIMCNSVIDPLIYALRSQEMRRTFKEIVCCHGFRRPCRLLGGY

[9] = target: T1, mMC1R; settings: cloned mouse receptors; cited from earlier work
[10] = target: T2, mMC3R; settings: cloned mouse receptors; cited from earlier work
[11] = target: T3, mMC4R; settings: cloned mouse receptors; cited from earlier work
[12] = target: T4, mMC5R; settings: cloned mouse receptors; cited from earlier work
[13] = tested on: hMC1R; settings: cited from earlier work

mMC1R fold difference [5] | EC50 [6] | mMC4R fold difference [7] | mMC5R fold difference [8] | Molecule | fold decreased agonist potency at the hMC4R relative to NDP-MSH [1] | efficacy relative to NDP-MSH at the hMC4R [2] | fold agonist potency loss at the hMC4R relative to NDP-MSH [2] | fold decreased binding affinity at the hMC1R [3] | fold decreased binding affinity at the hMC3R [4] | mMC3R fold difference [6] | agonist potency at the mMC1R [9] | agonist potency at the mMC3R [10] | agonist potency at the mMC4R [11] | agonist potency at the mMC5R [12] | activation of the hMC4R ([2]; at concentrations up to 100 μM) | agonist efficacy at the hMC1R [13] | fold less potent than NDP-MSH at the hMC1R [13]
did not alter agonist potency | 0.55 ± 0.12 nM | did not alter agonist potency | did not alter agonist potency | CCCC[C@H](NC(=O)[C@H](CO)NC(=O)[C@H](Cc1ccc(O)cc1)NC(=O)[C@H](CO)NC(C)=O)C(=O)N[C@@H](CCC(=O)O)C(=O)N[C@@H](C)C(=O)N[C@H](Cc1ccccc1)C(=O)N[C@@H](CCCNC(=N)N)C(=O)N[C@@H](Cc1c[nH]c2ccccc12)C(=O)NCC(=O)N[C@@H](CCCCN)C(=O)N1CCC[C@H]1C(=O)N[C@H](C(N)=O)C(C)C [[Ala^6]NDP-MSH, Ac-Ser-Tyr-Ser-Nle-Glu-Ala-DPhe-Arg-Trp-Gly-Lys-Pro-Val-NH2] | 4 fold | 40% | equipotent | 8 fold | 6 fold | did not alter agonist potency; also recorded: equipotency | – | – | – | – | – | – | –
– | – | – | – | Ac-His-Phe-Arg-Trp-NH2 | – | – | – | – | – | – | micromolar potency | micromolar potency | micromolar potency | sub-micromolar potency | – | – | –
180 fold | 295 ± 92 nM | 2120 fold | 220 fold | CCCC[C@H](NC(=O)[C@H](CO)NC(=O)[C@H](Cc1ccc(O)cc1)NC(=O)[C@H](CO)NC(C)=O)C(=O)N[C@@H](CCC(=O)O)C(=O)N[C@@H](Cc1c[nH]cn1)C(=O)N[C@H](Cc1ccccc1)C(=O)N[C@@H](CCCNC(=N)N)C(=O)N[C@@H](C)C(=O)NCC(=O)N[C@@H](CCCCN)C(=O)N1CCC[C@H]1C(=O)N[C@H](C(N)=O)C(C)C [[Ala^9]NDP-MSH, Ac-Ser-Tyr-Ser-Nle-Glu-His-DPhe-Arg-Ala-Gly-Lys-Pro-Val-NH2] | – | – | – | – | – | 1230 fold | – | – | – | – | not to activate | full agonist | 3 fold
